Drawing on ChEMBL document CHEMBL1158276, “Synthesis of 5-(3-Hydroxypropyl)-7-methoxy-2-(3-methoxy-4-hydroxyphenyl)-3- benzo[ b ]furancarbaldehyde, a Novel Adenosine A 1 Receptor Ligand from the Root of Salvia miltiorrhiza” (J Nat Prod, 1996), this text covers IC50 for 1 molecule.

In the assay the target is T1, Adenosine receptor A1 (Bos taurus, UniProt P28190).
T1 sequence (P28190 whole entry): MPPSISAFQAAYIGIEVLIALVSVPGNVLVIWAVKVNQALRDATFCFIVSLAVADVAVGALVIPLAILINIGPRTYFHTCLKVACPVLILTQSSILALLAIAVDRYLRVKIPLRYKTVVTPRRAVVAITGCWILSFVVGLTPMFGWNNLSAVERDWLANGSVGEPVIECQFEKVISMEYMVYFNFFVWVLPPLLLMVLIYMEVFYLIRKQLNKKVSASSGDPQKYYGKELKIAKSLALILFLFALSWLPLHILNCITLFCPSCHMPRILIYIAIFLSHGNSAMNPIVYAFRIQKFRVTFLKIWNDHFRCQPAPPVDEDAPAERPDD
Nature of the assay: Displacement of [3H]phenylisopropyladenosine from adenosine A1 receptor in bovine cerebral cortex membrane. The assay is classed as cell membranes.

Usually IC50 stands for the point on the concentration scale where inhibition reaches its midpoint. The low end stands for greater potency, the high end for weaker potency. In the case of `COc1cc(-c2oc3c(OC)cc(CCCO)cc3c2C=O)ccc1O`, the IC50 worked out at 0.017 µM.
